Laboratory results taken from paper PMC6874883 (Biochemistry, 2019).
Where a chain is given by its changes, count along the chain named. Names and notes keep the numbering of the source. Values joined by “and” are separate entries in the source; they are usually repeats but may differ in a detail not shown here. Equal entries are not always repeated. Values belong to the molecule of their own block, whether it stands above or below them.

Experiments:
caspase-6 ΔN D179CT = biological target: T1, caspase-6 ΔN D179CT (Homo sapiens, UniProt P55212); test: Effect of ATP on the activity of cleaved, active caspase-6; assay type: biochemical; conditions: increasing ATP concentrations (0-40 mM), 1.5 h, 37 °C, 60 μM VEID-AMC
T1 sequence (P55212 24-179): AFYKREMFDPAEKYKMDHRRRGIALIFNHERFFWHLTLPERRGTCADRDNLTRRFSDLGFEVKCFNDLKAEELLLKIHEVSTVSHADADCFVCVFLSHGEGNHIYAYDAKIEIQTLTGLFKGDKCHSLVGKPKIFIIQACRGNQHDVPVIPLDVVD
T1 sequence (P55212 194-293): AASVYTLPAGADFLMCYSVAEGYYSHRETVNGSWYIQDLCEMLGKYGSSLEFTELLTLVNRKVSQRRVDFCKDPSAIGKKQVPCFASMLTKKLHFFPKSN

[1] = biological target: T2, procaspase-6, Caspase-6 FL N-terminally (His)6 (Homo sapiens, UniProt P55212); test: biochemical
T2 sequence (P55212 1-293): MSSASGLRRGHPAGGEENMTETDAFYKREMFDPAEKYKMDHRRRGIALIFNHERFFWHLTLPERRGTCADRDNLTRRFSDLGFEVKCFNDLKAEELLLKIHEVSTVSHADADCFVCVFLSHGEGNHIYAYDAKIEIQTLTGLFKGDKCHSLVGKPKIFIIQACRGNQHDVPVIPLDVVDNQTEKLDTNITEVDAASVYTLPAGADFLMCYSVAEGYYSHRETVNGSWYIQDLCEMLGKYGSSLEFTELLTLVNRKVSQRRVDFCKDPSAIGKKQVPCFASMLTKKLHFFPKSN

procaspase-6 = biological target: T3, procaspase-6 (Homo sapiens, UniProt P55212); assay type: binding
T3 sequence (P55212 1-293): T2 sequence (P55212 1-293)

[2] = biological target: procaspase-6 (inactive C163S zymogen); conditions: SPR; cited from earlier work
procaspase-6 C163S = biological target: T4, procaspase-6 C163S (Homo sapiens, UniProt P55212, C163S); test: ATPAc labeling of K133, C163S variant expressed in E. coli; assay type: binding; conditions: full-length zymogen; defined as 100%
T4 sequence (P55212 1-293 C163S): T2 sequence (P55212 1-293) with C163S

procaspase-6 Y198A/C163S = biological target: T5, procaspase-6 Y198A/C163S (Homo sapiens, UniProt P55212, C163S/Y198A); test: ATPAc labeling of K133, Y198A/C163S variant expressed in E. coli; assay type: binding; conditions: full-length procaspase-6; relative to C163S = 100%
T5 sequence (P55212 1-293 C163S/Y198A): T2 sequence (P55212 1-293) with C163S, Y198A

procaspase-6 Y198A = biological target: T6, procaspase-6 Y198A (Homo sapiens, UniProt P55212, Y198A); test: ATPAc labeling of K133, Y198A variant expressed in E. coli; assay type: binding; conditions: zymogen processed to mature Y198A caspase-6; relative to C163S = 100%
T6 sequence (P55212 24-179): T1 sequence (P55212 24-179)
T6 sequence (P55212 194-293 Y198A): T1 sequence (P55212 194-293) with Y5A

caspase-6 = biological target: T7, caspase-6 (Homo sapiens, UniProt P55212); test: Caspase activity assay, kinetic parameters with VEID-AMC substrate; assay type: biochemical; conditions: 100 nM enzyme, VEID-AMC 0-500 μM, 37 °C
T7 sequence (P55212 24-179): T1 sequence (P55212 24-179)
T7 sequence (P55212 194-293): T1 sequence (P55212 194-293)

inhibition of K133 acylation by acyl phosphate probes (procaspase-6; resting Jurkat lysates pretreated 15 min with nucleotide (5 mM)): inhibited
Molecule: Nc1nc2c(ncn2[C@@H]2O[C@H](COP(=O)(O)OP(=O)(O)OP(=O)(O)O)[C@@H](O)[C@H]2O)c(=O)[nH]1 [GTP, guanosine triphosphate]

IC50 (procaspase-6): > 1000 µM
Molecule: Nc1cc2ccccc2c(O)n1 [compound 3, 3-aminoisoquinolin-1-ol]
Kd [2]: 1.8 µM and ~1.8 µM

inhibition of probe acylation (immunoblot) (procaspase-6; immunoblot experiment, at ≤100 mM): no significant inhibition
Molecule: Nc1ncnc2c1ncn2[C@H]1C[C@H](O)[C@@H](COP(=O)(O)OP(=O)(O)OP(=O)(O)O)O1 [dATP]

More lines, now with the values behind:

Molecule: Nc1ncnc2c1ncn2[C@@H]1O[C@H](COP(=O)(O)OP(=O)(O)OP(=O)(O)O)[C@@H](O)[C@H]1O [ATP, adenosine triphosphate]
activity of mature caspase-6 (caspase-6 ΔN D179CT): not affected | IC50 [1]: 19000 ± 800 µM | IC50 (procaspase-6): 1000 to 3000 µM | Ki (procaspase-6): ~2000 µM

Molecule: desthiobiotin acyl phosphate of ATP [ATPAc]
acylation of K133 (procaspase-6 C163S): 100% | acylation of K133 (procaspase-6 Y198A/C163S): 1.7% | acylation of K133 (procaspase-6 Y198A): 1.9%

B1: Y198A: mature active caspase-6 Y198A variant, recombinant, expressed in E. coli (protein, UniProt P55212 1-293, looked up, variant Y198A)
chain: T2 sequence (P55212 1-293) with Y198A
kcat (caspase-6): 2.84 ± 0.04 s⁻¹
